Measurements reported in PMC11882969 (Nature Communications, 2025).
“And” between values parts separate entries of the source, which are not always exact repeats. Equal entries are not always repeated.

What was measured:
[1] = biological target: panel of 320 non-olfactory GPCRs (Homo sapiens, UniProt O00222); type: cell-based
[2] = biological target: panel of 320 non-olfactory GPCRs (Homo sapiens, UniProt O00254); type: cell-based
[3] = biological target: panel of 320 non-olfactory GPCRs (Homo sapiens, UniProt O95800); type: cell-based
[4] = biological target: panel of 320 non-olfactory GPCRs (Homo sapiens, UniProt P13945); type: cell-based
[5] = biological target: panel of 320 non-olfactory GPCRs (Homo sapiens, UniProt P21452); type: cell-based
[6] = biological target: panel of 320 non-olfactory GPCRs (Homo sapiens, UniProt P25025); type: cell-based
[7] = biological target: panel of 320 non-olfactory GPCRs (Homo sapiens, UniProt P30411); type: cell-based
[8] = biological target: panel of 320 non-olfactory GPCRs (Homo sapiens, UniProt P30542); type: cell-based
[9] = biological target: panel of 320 non-olfactory GPCRs (Homo sapiens, UniProt P30872); type: cell-based
[10] = biological target: panel of 320 non-olfactory GPCRs (Homo sapiens, UniProt P41231); type: cell-based
[11] = biological target: panel of 320 non-olfactory GPCRs (Homo sapiens, UniProt P41595); type: cell-based
[12] = biological target: panel of 320 non-olfactory GPCRs (Homo sapiens, UniProt P43657); type: cell-based
[13] = biological target: panel of 320 non-olfactory GPCRs (Homo sapiens, UniProt P50052); type: cell-based
[14] = biological target: panel of 320 non-olfactory GPCRs (Homo sapiens, UniProt P51677); type: cell-based
[15] = biological target: panel of 320 non-olfactory GPCRs (Homo sapiens, UniProt Q01718); type: cell-based
[16] = biological target: panel of 320 non-olfactory GPCRs (Homo sapiens, UniProt Q14439); type: cell-based
[17] = biological target: panel of 320 non-olfactory GPCRs (Homo sapiens, UniProt Q15077); type: cell-based
[18] = biological target: panel of 320 non-olfactory GPCRs (Homo sapiens, UniProt Q16602); type: cell-based
[19] = biological target: panel of 320 non-olfactory GPCRs (Homo sapiens, UniProt Q5UAW9); type: cell-based
[20] = biological target: panel of 320 non-olfactory GPCRs (Homo sapiens, UniProt Q86VZ1); type: cell-based
[21] = biological target: panel of 320 non-olfactory GPCRs (Homo sapiens, UniProt Q8IYL9); type: cell-based
[22] = biological target: panel of 320 non-olfactory GPCRs (Homo sapiens, UniProt Q8IZF2); type: cell-based
[23] = biological target: panel of 320 non-olfactory GPCRs (Homo sapiens, UniProt Q8N6U8); type: cell-based
[24] = biological target: panel of 320 non-olfactory GPCRs (Homo sapiens, UniProt Q8TDT2); type: cell-based
[25] = biological target: panel of 320 non-olfactory GPCRs (Homo sapiens, UniProt Q96LB1); type: cell-based
[26] = biological target: panel of 320 non-olfactory GPCRs (Homo sapiens, UniProt Q96P67); type: cell-based
[27] = biological target: panel of 320 non-olfactory GPCRs (Homo sapiens, UniProt Q96P68); type: cell-based
[28] = biological target: panel of 320 non-olfactory GPCRs (Homo sapiens, UniProt Q99527); type: cell-based
[29] = biological target: panel of 320 non-olfactory GPCRs (Homo sapiens, UniProt Q9BZJ6); type: cell-based
[30] = biological target: panel of 320 non-olfactory GPCRs (Homo sapiens, UniProt Q9GZQ4); type: cell-based
[31] = biological target: panel of 320 non-olfactory GPCRs (Homo sapiens, UniProt Q9NPC1); type: cell-based
[32] = biological target: panel of 320 non-olfactory GPCRs (Homo sapiens, UniProt Q9NQS5); type: cell-based
[33] = biological target: panel of 320 non-olfactory GPCRs (Homo sapiens, UniProt Q9NZD1); type: cell-based
[34] = biological target: panel of 320 non-olfactory GPCRs (Homo sapiens, UniProt Q9UJ42); type: cell-based
[35] = biological target: panel of 320 non-olfactory GPCRs (Homo sapiens, UniProt Q9Y2T6); type: cell-based
[36] = biological target: panel of 320 non-olfactory GPCRs (Homo sapiens, UniProt Q9Y5X5); type: cell-based
[37] = test system: panel of 320 non-olfactory GPCRs; type: cell-based, human

panel of 320 non-olfactory GPCRs (Homo sapiens, UniProt O95800), sequence (O95800 whole entry): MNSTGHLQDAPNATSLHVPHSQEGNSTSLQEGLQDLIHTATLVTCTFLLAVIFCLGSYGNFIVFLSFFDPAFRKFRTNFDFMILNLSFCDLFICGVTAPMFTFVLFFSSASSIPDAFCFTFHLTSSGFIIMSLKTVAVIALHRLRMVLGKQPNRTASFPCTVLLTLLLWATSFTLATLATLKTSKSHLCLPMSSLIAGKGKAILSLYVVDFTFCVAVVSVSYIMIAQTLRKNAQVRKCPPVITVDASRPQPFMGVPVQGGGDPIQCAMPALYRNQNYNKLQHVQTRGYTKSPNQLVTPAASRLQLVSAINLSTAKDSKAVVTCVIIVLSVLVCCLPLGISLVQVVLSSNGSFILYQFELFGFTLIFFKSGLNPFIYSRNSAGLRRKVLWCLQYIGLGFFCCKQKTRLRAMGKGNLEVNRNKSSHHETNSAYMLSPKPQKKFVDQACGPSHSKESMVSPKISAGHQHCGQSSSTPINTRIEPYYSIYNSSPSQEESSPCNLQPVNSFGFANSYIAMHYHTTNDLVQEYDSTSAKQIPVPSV
panel of 320 non-olfactory GPCRs (Homo sapiens, UniProt Q99527), sequence (Q99527 whole entry): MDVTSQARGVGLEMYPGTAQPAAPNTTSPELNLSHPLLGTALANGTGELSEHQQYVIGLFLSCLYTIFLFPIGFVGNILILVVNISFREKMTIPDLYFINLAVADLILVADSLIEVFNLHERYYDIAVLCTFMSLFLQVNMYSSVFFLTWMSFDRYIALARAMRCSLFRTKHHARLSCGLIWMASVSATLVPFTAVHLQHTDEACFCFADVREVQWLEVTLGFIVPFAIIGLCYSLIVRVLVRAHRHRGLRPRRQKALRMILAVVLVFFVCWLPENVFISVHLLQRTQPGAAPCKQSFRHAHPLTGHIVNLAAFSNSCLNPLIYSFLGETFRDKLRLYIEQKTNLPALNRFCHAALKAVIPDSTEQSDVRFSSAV
panel of 320 non-olfactory GPCRs (Homo sapiens, UniProt P13945), sequence (P13945 whole entry): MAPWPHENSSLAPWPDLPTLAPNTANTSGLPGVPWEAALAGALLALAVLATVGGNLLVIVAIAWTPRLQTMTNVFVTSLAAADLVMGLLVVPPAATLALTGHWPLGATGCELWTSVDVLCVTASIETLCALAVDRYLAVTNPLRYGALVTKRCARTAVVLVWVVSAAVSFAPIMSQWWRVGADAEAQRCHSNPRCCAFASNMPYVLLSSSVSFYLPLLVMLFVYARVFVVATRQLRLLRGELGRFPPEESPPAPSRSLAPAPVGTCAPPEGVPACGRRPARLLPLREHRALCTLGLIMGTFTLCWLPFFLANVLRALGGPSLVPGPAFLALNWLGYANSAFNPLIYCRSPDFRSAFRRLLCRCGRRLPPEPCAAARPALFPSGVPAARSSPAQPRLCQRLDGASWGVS
panel of 320 non-olfactory GPCRs (Homo sapiens, UniProt Q96LB1), sequence (Q96LB1 whole entry): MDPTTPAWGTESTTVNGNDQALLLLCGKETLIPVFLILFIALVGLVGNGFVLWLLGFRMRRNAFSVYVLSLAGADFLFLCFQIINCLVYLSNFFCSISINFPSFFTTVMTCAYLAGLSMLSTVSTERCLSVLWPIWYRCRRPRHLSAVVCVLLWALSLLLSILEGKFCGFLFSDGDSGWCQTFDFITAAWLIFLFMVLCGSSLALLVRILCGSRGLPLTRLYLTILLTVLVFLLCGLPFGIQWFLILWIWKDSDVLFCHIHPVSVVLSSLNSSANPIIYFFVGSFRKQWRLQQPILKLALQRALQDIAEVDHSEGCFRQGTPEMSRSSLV
panel of 320 non-olfactory GPCRs (Homo sapiens, UniProt Q15077), sequence (Q15077 whole entry): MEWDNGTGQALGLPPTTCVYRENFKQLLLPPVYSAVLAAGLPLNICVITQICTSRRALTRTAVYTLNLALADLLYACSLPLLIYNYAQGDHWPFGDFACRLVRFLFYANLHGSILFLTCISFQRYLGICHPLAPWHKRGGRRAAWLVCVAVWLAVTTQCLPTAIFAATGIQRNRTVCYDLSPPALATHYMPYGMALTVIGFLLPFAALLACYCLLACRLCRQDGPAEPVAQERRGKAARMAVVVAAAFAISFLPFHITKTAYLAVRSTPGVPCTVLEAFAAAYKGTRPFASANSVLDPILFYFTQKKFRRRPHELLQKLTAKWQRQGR
panel of 320 non-olfactory GPCRs (Homo sapiens, UniProt Q16602), sequence (Q16602 23-461): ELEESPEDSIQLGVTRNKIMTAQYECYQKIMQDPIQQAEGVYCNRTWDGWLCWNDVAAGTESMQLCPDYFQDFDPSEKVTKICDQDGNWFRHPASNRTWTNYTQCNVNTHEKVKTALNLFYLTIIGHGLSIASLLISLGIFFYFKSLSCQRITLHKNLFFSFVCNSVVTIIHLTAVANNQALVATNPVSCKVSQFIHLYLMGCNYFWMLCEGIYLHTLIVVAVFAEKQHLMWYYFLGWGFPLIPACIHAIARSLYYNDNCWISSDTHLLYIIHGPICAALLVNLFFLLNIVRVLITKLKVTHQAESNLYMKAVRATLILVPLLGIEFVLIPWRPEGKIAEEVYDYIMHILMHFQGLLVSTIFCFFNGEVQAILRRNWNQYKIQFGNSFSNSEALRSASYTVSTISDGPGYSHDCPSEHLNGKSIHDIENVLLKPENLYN
panel of 320 non-olfactory GPCRs (Homo sapiens, UniProt Q9NZD1), sequence (Q9NZD1 whole entry): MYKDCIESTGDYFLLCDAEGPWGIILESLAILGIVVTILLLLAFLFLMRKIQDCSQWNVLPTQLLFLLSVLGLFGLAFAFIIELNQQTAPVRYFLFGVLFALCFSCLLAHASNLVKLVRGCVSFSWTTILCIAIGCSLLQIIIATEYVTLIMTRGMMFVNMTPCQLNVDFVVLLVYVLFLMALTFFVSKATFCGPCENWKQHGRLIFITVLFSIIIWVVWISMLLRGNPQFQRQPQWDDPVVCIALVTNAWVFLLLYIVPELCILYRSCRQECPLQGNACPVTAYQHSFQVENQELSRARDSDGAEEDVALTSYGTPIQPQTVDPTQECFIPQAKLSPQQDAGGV
panel of 320 non-olfactory GPCRs (Homo sapiens, UniProt P25025), sequence (P25025 whole entry): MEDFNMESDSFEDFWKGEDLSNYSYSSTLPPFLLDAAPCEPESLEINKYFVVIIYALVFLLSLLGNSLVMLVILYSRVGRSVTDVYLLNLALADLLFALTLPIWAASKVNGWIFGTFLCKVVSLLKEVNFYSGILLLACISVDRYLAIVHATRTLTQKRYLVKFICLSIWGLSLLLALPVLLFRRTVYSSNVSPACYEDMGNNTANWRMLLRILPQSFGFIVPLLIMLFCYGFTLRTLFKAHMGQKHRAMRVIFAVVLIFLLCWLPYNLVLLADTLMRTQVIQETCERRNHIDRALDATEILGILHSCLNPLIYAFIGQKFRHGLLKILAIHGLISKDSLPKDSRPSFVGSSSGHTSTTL
panel of 320 non-olfactory GPCRs (Homo sapiens, UniProt Q8TDT2), sequence (Q8TDT2 whole entry): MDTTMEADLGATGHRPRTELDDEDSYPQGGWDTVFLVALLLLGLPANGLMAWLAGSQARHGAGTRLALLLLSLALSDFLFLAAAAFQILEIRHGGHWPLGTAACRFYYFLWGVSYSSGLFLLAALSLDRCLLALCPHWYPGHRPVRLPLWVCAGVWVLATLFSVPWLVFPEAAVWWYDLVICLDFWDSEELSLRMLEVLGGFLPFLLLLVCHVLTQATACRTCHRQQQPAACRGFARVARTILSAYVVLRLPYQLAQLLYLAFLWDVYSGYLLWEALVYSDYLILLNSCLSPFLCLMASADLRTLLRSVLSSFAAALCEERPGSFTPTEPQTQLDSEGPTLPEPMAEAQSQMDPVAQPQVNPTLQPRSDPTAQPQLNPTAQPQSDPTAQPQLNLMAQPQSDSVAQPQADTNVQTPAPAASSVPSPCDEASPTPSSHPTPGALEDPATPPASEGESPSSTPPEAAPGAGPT
panel of 320 non-olfactory GPCRs (Homo sapiens, UniProt P41595), sequence (P41595 whole entry): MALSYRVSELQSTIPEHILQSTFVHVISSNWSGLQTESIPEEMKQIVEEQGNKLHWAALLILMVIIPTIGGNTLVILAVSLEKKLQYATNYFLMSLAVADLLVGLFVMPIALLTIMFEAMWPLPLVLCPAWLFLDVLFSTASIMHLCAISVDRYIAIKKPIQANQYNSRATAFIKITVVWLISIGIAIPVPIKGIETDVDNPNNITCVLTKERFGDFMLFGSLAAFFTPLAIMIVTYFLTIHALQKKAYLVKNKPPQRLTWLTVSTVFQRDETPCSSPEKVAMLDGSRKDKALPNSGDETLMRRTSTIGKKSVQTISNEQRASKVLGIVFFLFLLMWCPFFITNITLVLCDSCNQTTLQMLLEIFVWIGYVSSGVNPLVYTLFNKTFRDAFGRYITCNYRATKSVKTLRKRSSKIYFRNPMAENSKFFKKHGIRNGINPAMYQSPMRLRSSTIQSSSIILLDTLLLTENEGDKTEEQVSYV
panel of 320 non-olfactory GPCRs (Homo sapiens, UniProt Q8IYL9), sequence (Q8IYL9 whole entry): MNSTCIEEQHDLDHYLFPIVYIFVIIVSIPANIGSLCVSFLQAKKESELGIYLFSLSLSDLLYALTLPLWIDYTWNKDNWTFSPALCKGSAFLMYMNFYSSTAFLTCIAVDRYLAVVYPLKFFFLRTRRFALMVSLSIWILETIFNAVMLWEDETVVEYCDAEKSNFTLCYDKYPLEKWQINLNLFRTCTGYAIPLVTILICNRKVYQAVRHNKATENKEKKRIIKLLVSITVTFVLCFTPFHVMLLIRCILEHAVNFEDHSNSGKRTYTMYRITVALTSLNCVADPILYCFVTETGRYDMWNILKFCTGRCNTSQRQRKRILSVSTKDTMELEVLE
panel of 320 non-olfactory GPCRs (Homo sapiens, UniProt Q01718), sequence (Q01718 whole entry): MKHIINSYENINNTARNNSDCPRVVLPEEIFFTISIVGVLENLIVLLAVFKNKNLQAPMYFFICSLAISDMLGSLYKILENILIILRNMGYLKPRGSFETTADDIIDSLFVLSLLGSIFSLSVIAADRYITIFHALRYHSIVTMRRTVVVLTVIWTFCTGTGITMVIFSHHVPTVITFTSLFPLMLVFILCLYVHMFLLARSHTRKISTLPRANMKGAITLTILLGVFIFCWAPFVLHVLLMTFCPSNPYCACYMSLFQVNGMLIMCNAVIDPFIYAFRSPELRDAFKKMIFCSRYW

SMILES	Fold of Basal RLU [1]	Fold of Basal RLU [2]	Fold of Basal RLU [3]	Fold of Basal RLU [4]	Fold of Basal RLU [5]	Fold of Basal RLU [6]	Fold of Basal RLU [7]	Fold of Basal RLU [8]	Fold of Basal RLU [9]	Fold of Basal RLU [10]	Fold of Basal RLU [11]	Fold of Basal RLU [12]	Fold of Basal RLU [13]	Fold of Basal RLU [14]	Fold of Basal RLU [15]	Fold of Basal RLU [16]	Fold of Basal RLU [17]	Fold of Basal RLU [18]	Fold of Basal RLU [19]	Fold of Basal RLU [20]	further results
COC(=O)[C@@](C)(NC(=O)c1cc(C)n(-c2cccc(C(F)(F)F)c2)n1)c1cccs1 [‘1350]	0.7 and 0.9 and 1.2 and 1.4	0.9 fold and 1.1 fold	1.1 fold and 1 fold and 1.2 fold and 2 fold	1 and 1.5 and 1.9 and 1.1	1 fold and 1.1 fold and 0.9 fold	0.8 fold and 1 fold and 1.1 fold	0.9 fold and 1 fold and 0.8 fold	1.2 fold and 1.7 fold and 1.6 fold and 2.1 fold	1.6 fold and 1.2 fold and 1.5 fold	1.3 fold and 1.4 fold and 1 fold	0.8 fold and 0.7 fold and 1 fold	0.9 fold and 1 fold and 1.1 fold and 0.7 fold	1.1 fold and 1 fold	0.9 fold and 1 fold and 1.2 fold	1 and 1.3 and 0.7	0.7 and 0.8 and 1 and 0.9	1.4 fold and 1.2 fold and 1.1 fold	0.4 and 0.7 and 0.6	1.2 and 1.1 and 1 and 1.6	0.6 fold and 1.1 fold and 0.8 fold and 0.7 fold	Fold of Basal RLU [21]: 0.9 fold and 0.8 fold and 1 fold; Fold of Basal RLU [22]: 1.1 fold and 1.3 fold; Fold of Basal RLU [23]: 1.2 fold and 1.1 fold and 1 fold; Fold of Basal RLU [24]: 1.2 fold and 1.1 fold and 0.8 fold and 1.5 fold; Fold of Basal RLU [25]: 1.7 fold and 1.5 fold and 1 fold and 1.1 fold; Fold of Basal RLU [26]: 1 fold and 1.1 fold; Fold of Basal RLU [27]: 1.1 fold and 1.3 fold and 1.6 fold; Fold of Basal RLU [28]: 1.2 and 1.1 and 0.9; Fold of Basal RLU [29]: 1.1 fold and 1 fold and 0.8 fold; Fold of Basal RLU [30]: 0.7 fold and 0.9 fold and 0.8 fold; Fold of Basal RLU [31]: 0.8 fold and 1 fold and 0.6 fold and 0.7 fold; Fold of Basal RLU [32]: 1 fold and 1.1 fold and 1.2 fold and 1.4 fold; Fold of Basal RLU [33]: 1.1 and 1 and 0.6 and 0.8; Fold of Basal RLU [34]: 0.7 fold and 1.1 fold and 1 fold; Fold of Basal RLU [35]: 1.4 fold and 1.3 fold and 1.5 fold; Fold of Basal RLU [36]: 0.3; agonist activity at GPR55, GPR18, GPR119 [37]: no agonist activity; off-target functional activity [37]: little activity was seen
Cc1cc(C(=O)NC(C)(c2ccco2)c2ccco2)nn1-c1cccc(C(F)(F)F)c1 [‘4936]	0.3 and 0.6 and 0.4 and 0.5	1 fold and 0.7 fold and 0.9 fold and 1.1 fold	1.7 fold and 1.4 fold and 1.6 fold	0.9 and 0.7 and 1	1.3 fold and 1.1 fold and 1.5 fold	1.8 fold and 1.3 fold and 1.4 fold and 1.6 fold	1.1 fold and 1.3 fold and 0.9 fold and 1.2 fold	6.4 fold and 5.8 fold and 6.3 fold and 7.4 fold	1.3 fold and 1.2 fold and 1.5 fold and 1.8 fold	0.9 fold and 1.2 fold and 1 fold and 1.1 fold	1.1 fold and 1.6 fold and 2 fold	0.7 fold and 0.8 fold	1.1 fold and 1.2 fold and 0.9 fold	1 fold and 0.9 fold and 1.4 fold	1.4 and 1.2 and 1	0.8 and 0.9 and 1	1.2 fold and 1.3 fold	1 and 0.6 and 0.5	1.4 and 1.2 and 0.9 and 0.7	0.5 fold and 0.8 fold	Fold of Basal RLU [21]: 1.1 fold and 1 fold; Fold of Basal RLU [22]: 2.1 fold and 2.4 fold and 1.6 fold and 2.5 fold; Fold of Basal RLU [23]: 1.1 fold and 1.2 fold; Fold of Basal RLU [24]: 1.1 fold and 0.9 fold and 1 fold; Fold of Basal RLU [25]: 1.3 fold and 1.2 fold and 1.7 fold and 1.4 fold; Fold of Basal RLU [26]: 1 fold and 0.9 fold; Fold of Basal RLU [27]: 1.3 fold and 1.5 fold and 2.1 fold; Fold of Basal RLU [28]: 1.9 and 1.3 and 1.5 and 1.4; Fold of Basal RLU [29]: 1.1 fold and 1.2 fold and 0.8 fold and 0.9 fold; Fold of Basal RLU [30]: 0.9 fold and 0.8 fold and 0.7 fold; Fold of Basal RLU [31]: 0.6 fold and 0.8 fold and 0.7 fold and 0.9 fold; Fold of Basal RLU [32]: 1 fold and 0.9 fold and 1.6 fold; Fold of Basal RLU [33]: 0.8 and 0.6 and 0.9; Fold of Basal RLU [34]: 0.8 fold and 1.1 fold and 0.9 fold; Fold of Basal RLU [35]: 1.1 fold and 1.7 fold and 1.4 fold; Fold of Basal RLU [36]: 0.4 and 0.6 and 0.5 and 0.3; agonist activity at GPR55, GPR18, GPR119 [37]: no agonist activity; off-target functional activity [37]: except for ‘4936 against ADORA-1
